Assay results from US11925690B2, “Bifunctional molecules for targeting Rpn11” (AMPHISTA THERAPEUTICS LTD, priority 2018, dated 2024).

How the values were obtained:
[1] = target: T1, Brd4 (L) (Homo sapiens, UniProt O60885); assay: Concentration-dependent BET degradation, immunoblot; type: cell-based; settings: 4 h, 1 nM-10 μM
T1 construct: endogenous in cells; host or cells: HEK293 (CRL-1573), HeLa (CCL-2)
Description: (§1) Immunoblotting. Proteins were separated by SDS-PAGE on NuPage 4-12% Bis-Tris gels, followed by transfer to Amersham Protran 0.45 NC nitrocellulose membrane (GE Healthcare) using wet transfer. Membranes were blocked using 5% w/v milk in Tris-buffered saline (TBS) with 0.1% Tween-20. Blots were probed (overnight at 4 °C) using anti-Brd2 (Abcam ab139690, 1:2,000 dilution), anti-Brd3 (Abcam ab50818, 1:500 dilution), and anti-Brd4 (Abcam ab128874, 1:1,000 dilution) primary antibodies, as appropriate. The next day, blots were washed with TBST and incubated (1 h at Room temperature) with anti-Tubulin hFAB-rhodamine (BioRad, 12004166) primary antibody, and either anti-rabbit IRDye 800CW (Licor 1:1,000 dilution) or anti-mouse IRDye 800CW (Licor 1:1,000 dilution) secondary antibody. Blots were developed using a Bio-Rad ChemiDoc MP Imaging System, and band quantification was performed using Image Studio software (LiCor). Band intensities were normalized to the tubulin loading control and reported as % of the average 0.1% DMSO vehicle intensity. Degradation data was plotted and analysed using Prism (Graphpad, version 8).
(§2) HeLa (5×10^5) and HEK293 (1×10^6) cells were seeded in standard 6-well plates (2 mL medium) overnight before treatment with compounds at the desired concentration (1 nM-10 μM), with a final DMSO concentration of 0.1% v/v. After 4 h treatment time, cells were washed with DPBS (Gibco) and lysed using 85 μL RIPA buffer (Sigma-Aldrich) supplemented with cOmplete Mini EDTA-free protease inhibitor cocktail (Roche) and benzonase. Lysates were clarified by centrifugation (20000 g, 10 min, 4° C.) and the total protein content of the supernatant was quantified using a Bradford colorimetric assay. Samples were prepared using equal amounts of total protein and LDS sample buffer (Invitrogen). Band intensities were normalized to the tubulin loading control and reported as % of the average 0.1% DMSO vehicle intensity. Degradation data was plotted and analysed using Prism (Graphpad, version 8).
(§3) MZ1 and 11JQ17 were used at 1 μM for positive and negative controls, respectively. […] For the table, Dmax: +(Dmax≤25%); ++(26%≤Dmax≤50%); +++(51%≤Dmax≤70%); ++++(71%≤DC50: A (DC50≤50 nM); B (51 nM≤DC50≤500 nM); C (501 nM≤DC50).

[2] = target: T2, Brd4 (S) (Homo sapiens, UniProt O60885); assay: as above; type: cell-based; settings: 4 h, 1 nM-10 μM
T2 construct: endogenous in cells; host or cells: HEK293 (CRL-1573), HeLa (CCL-2)
Description: as §1, §2, §3

[3] = target: T3, Brd2 (Homo sapiens, UniProt P25440); assay: as above; type: cell-based; parameters: endogenous in cells; host or cells: HEK293 (CRL-1573), HeLa (CCL-2); settings: 1 nM-10 μM
Description: as §1, §2, §3

[4] = target: T4, Brd3 (Homo sapiens, UniProt Q15059); assay: as above; type: cell-based; parameters: endogenous in cells; host or cells: HEK293 (CRL-1573), HeLa (CCL-2); settings: 1 nM-10 μM
Description: as §1, §2, §3

[5] = test system: human cancer cell lines; settings: cited from earlier work
[6] = target: T5, Brd4 (Homo sapiens, UniProt O60885); assay: Mechanistic evaluation: Brd4 degradation after inhibitor pre-treatment; type: cell-based; settings: HEK293, 1 μM degrader 4 h
T5 construct: immunoblot analysis of Brd4 following 4 h treatment of HEK293 cells; endogenous in cells; host or cells: HEK293 (CRL-1573)
Description: HeLa (5×10^5) and HEK293 (1×10^6) cells were seeded in standard 6-well plates (2 mL medium) overnight before pre-treatment with inhibitors (10 μM bortezomib, 10 μM capzimin, 10 μM JQ1). After a 0.5 h pre-incubation time, cells were subsequently treated with vehicle, 1 μM MZ1 or 1 μM 11JQ15, yielding a final overall DMSO concentration of 0.2% v/v. After 4 h incubation, cells were washed with DPBS (Gibco) and lysed using 85 μL RIPA buffer (Sigma-Aldrich) supplemented with cOmplete Mini EDTA-free protease inhibitor cocktail (Roche) and benzonase. Lysates were clarified by centrifugation (20000 g, 10 min, 4° C.) and the total protein content of the supernatant was quantified using a Bradford colorimetric assay. Samples were prepared using equal amounts of total protein and LDS sample buffer (Invitrogen).
Brd4 band intensities were normalized to tubulin loading control and reported in FIG. 6B as % of the average 0.1% DMSO vehicle intensity. Each bar is mean±SEM of three independent experiments performed in duplicate (n=3).

[7] = test system: HEK293 cells; assay: Unbiased whole proteome analysis by TMT-labelling MS; type: cell-based; settings: HEK293, 1 μM, 4 h, n=3
Description: HEK293 (2.2×10 6) cells were seeded in 10 cm plates (10 mL medium) overnight before treatment with 1 μM compound for a final DMSO concentration of 0.1% v/v. After 4 h incubation time, cells were washed with 2× with DPBS (Gibco) and lysed using 500 μL lysis buffer (100 mM Tris, 4% (w/v) SDS, pH 8.0) supplemented with cOmplete Mini EDTA-free protease inhibitor cocktail (Roche) and benzonase. Lysates were briefly sonicated (2×10 s), clarified by centrifugation (20000 g, 10 min, 4° C.) and the total protein content of the supernatant was quantified using a BCA assay (Thermo Fisher Scientific).
Sample processing, digestion, desalting, labelling, and fractionation were performed at Fingerprint Proteomics (University of Dundee) as described previously [Gadd et al. 10.1038/nchembio.2329]. FIG. 7 depicts fold change of abundance of 7882 proteins comparing 11JQ15 to DMSO treatment (left) and comparing 1 μM 11JQ17 to DMSO treatment (right), as well as their respective p-values (t-test; n=3).

[8] = target: T5, Brd4; assay: Immunoblot analysis of Brd4 in HEK293 cells (prodrug activity, negative SAR); type: cell-based; settings: HEK293, 1 μM, 4 h, n=3
Description: as §1, with “8). […]” for “8).”
HEK293 (1×10^6) cells incubated with DMSO, 1 μM 11JQ15 or 1 μM 11JQ17 for 4 h with a final DMSO concentration of 0.1% v/v. […] Degradation data was plotted and analysed using Prism (Graphpad, version 8), where bars are mean±SEM of three independent experiments.

[9] = target: T1, Brd4 (L); assay: Time-dependent BET degradation, immunoblot; type: cell-based; parameters: Dmax: dose or concentration left out as unconfirmed; settings: HEK293, Brd4 (L)
Description: as §1
as §2, with “HEK293” for “HeLa (5×10^5) and HEK293”, “(0.5×10^6)” for “(1×10^6)”, “1 μM concentration,” for “the desired concentration (1 nM-10 μM),”, “incubation for the desired time (0-24 hrs),” for “4 h treatment time,”, “complete” for “cOmplete”
(§4) MZ1 and 11JQ17 were used at 1 μM (4 h) for positive and negative controls, respectively. […]

[10] = target: T2, Brd4 (S); assay: Time-dependent BET degradation, immunoblot; type: cell-based; parameters: Dmax: dose or concentration left out as unconfirmed; settings: HEK293, Brd4 (S)
Description: as §1
as §2, with “HEK293” for “HeLa (5×10^5) and HEK293”, “(0.5×10^6)” for “(1×10^6)”, “1 μM concentration,” for “the desired concentration (1 nM-10 μM),”, “incubation for the desired time (0-24 hrs),” for “4 h treatment time,”, “complete” for “cOmplete”
as §4

[11] = target: T3, Brd2; assay: Time-dependent BET degradation, immunoblot; type: cell-based; settings: HEK293, Brd2, 1 μM
Description: as §1
as §2, with “HEK293” for “HeLa (5×10^5) and HEK293”, “(0.5×10^6)” for “(1×10^6)”, “1 μM concentration,” for “the desired concentration (1 nM-10 μM),”, “incubation for the desired time (0-24 hrs),” for “4 h treatment time,”, “complete” for “cOmplete”
as §4

[12] = target: T4, Brd3; assay: Time-dependent BET degradation, immunoblot; type: cell-based; settings: HEK293, Brd3, 1 μM
Description: as §1
as §2, with “HEK293” for “HeLa (5×10^5) and HEK293”, “(0.5×10^6)” for “(1×10^6)”, “1 μM concentration,” for “the desired concentration (1 nM-10 μM),”, “incubation for the desired time (0-24 hrs),” for “4 h treatment time,”, “complete” for “cOmplete”
as §4

[13] = 1 μM, time to deplete 50% of the protein relative to DMSO
[14] = 1 μM, time to reach 50% of the Dmax
[15] = time to deplete 50% of the protein relative to DMSO

T4 sequence (Q15059 whole entry): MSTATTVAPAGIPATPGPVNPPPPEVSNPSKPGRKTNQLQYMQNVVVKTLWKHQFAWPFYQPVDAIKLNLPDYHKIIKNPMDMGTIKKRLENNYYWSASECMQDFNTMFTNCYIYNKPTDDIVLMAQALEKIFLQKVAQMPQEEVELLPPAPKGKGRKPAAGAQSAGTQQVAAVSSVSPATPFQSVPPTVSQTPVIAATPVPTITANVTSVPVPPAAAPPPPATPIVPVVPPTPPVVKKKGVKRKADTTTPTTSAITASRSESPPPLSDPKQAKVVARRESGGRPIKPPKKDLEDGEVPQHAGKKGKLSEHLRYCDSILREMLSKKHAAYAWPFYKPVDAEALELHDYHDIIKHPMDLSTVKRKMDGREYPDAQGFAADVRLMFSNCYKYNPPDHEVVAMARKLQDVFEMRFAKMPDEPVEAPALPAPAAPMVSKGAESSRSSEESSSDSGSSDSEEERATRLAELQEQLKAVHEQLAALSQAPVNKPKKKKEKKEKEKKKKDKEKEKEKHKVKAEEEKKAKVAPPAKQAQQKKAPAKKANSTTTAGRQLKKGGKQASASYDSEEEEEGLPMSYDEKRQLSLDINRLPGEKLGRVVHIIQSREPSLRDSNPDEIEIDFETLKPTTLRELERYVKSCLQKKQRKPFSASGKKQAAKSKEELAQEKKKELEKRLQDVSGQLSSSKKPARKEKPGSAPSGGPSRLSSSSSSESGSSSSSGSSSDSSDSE
T3 sequence (P25440 whole entry): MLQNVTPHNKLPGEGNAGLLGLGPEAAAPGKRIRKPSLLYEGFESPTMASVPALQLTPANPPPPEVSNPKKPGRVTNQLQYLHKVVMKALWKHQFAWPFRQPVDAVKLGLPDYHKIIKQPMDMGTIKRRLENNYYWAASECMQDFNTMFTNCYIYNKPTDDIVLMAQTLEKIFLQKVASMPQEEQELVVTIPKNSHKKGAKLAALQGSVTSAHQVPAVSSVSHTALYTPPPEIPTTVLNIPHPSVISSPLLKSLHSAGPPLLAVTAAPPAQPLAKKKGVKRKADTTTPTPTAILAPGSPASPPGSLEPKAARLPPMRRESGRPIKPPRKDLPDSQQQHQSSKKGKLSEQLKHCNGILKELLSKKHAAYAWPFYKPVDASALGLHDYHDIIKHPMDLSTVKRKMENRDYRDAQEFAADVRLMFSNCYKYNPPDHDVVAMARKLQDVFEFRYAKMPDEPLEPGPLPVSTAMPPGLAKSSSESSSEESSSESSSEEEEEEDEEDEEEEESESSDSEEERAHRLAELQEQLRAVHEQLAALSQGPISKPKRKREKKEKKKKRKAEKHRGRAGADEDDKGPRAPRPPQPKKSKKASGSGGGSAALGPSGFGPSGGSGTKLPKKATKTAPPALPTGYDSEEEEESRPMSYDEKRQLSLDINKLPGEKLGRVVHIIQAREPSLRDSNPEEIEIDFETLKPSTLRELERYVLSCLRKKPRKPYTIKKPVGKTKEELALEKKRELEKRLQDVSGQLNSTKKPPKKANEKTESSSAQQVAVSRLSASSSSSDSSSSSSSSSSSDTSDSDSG

Row | DC50 ([1]; HEK293, Brd4 (L)) [nM] | Dmax ([1]; HEK293, Brd4 (L)) [%] | DC50 ([1]; HeLa) [nM] | Dmax ([1]; HeLa) [%] | DC50 ([2]; HEK293, Brd4 (S)) [nM] | Dmax ([2]; HEK293, Brd4 (S)) [%] | DC50 ([2]; HeLa) [nM] | Dmax ([2]; HeLa) [%] | DC50 ([3]; HEK293, Brd2, 4 h) [nM] | Dmax ([3]; HEK293, Brd2, 4 h) [%] | DC50 ([3]; HeLa, Brd2, 4 h) [nM] | Dmax ([3]; HeLa, Brd2, 4 h) [%] | DC50 ([4]; HEK293, Brd3, 4 h) [nM] | Dmax ([4]; HEK293, Brd3, 4 h) [%] | DC50 ([4]; HeLa, Brd3, 4 h) [nM] | Dmax ([4]; HeLa, Brd3, 4 h) [%] | SMILES | further results
1 | 51 to 500 | ≥ 71 | ≥ 501 | ≥ 71 | 51 to 500 | ≥ 71 | ≥ 501 | ≥ 71 | ≥ 501 | 26 to 50 | ≥ 501 | 26 to 50 | ≥ 501 | 26 to 50 | ≥ 501 | ≤ 25 | Cc1sc2c(c1C)C(c1ccc(Cl)cc1)=N[C@@H](CC(=O)NCCCCNC(=O)c1cc(S)c3ncc(C(=O)NCc4ccc(F)cc4)cc3c1)c1nnc(C)n1-2 [Example 11JQ12] | 
2 |  |  |  |  |  |  |  |  |  |  |  |  |  |  |  |  | Cn1c(COP(=O)(NCCBr)NCCBr)cnc1[N+](=O)[O-] [TH-302, (1-methyl-2-nitro-1H-imidazole5-yl) N, N0-bis (2-bromoethyl) diamidophosphate] | cytotoxic potency ([5]; hypoxic conditions): greatly enhanced cytotoxic potency; cytotoxic activity ([5]; normoxic conditions): little cytotoxic activity
3 |  |  |  |  |  |  |  |  |  |  |  |  |  |  |  |  | Cc1ncsc1-c1ccc(CNC(=O)[C@@H]2C[C@@H](O)CN2C(=O)[C@@H](NC(=O)COCCOCCOCCNC(=O)C[C@@H]2N=C(c3ccc(Cl)cc3)c3c(sc(C)c3C)-n3c(C)nnc32)C(C)(C)C)cc1 [MZ1, reference compound] | Brd4 degradation in the presence of JQ1 ([6]; 10 μM JQ1 pre-treatment 0.5 h): blocked; Brd4 degradation in the presence of bortezomib ([6]; 10 μM bortezomib pre-treatment 0.5 h): blocked; Brd4 degradation in the presence of capzimin ([6]; 10 μM capzimin pre-treatment 0.5 h): only blocked by bortezomib and JQ1
4 |  | ≤ 25 |  | ≤ 25 |  | ≤ 25 |  | ≤ 25 |  | ≤ 25 |  | ≤ 25 |  | ≤ 25 |  | ≤ 25 | Cc1sc2c(c1C)C(c1ccc(Cl)cc1)=N[C@@H](CC(=O)NCCOCCNC(=O)c1cc(SC(C)(C)C)c3ncc(C(=O)NCCc4nccs4)cc3c1)c1nnc(C)n1-2 [Example 11JQ17] | fold change of abundance of 7882 proteins vs DMSO (FIG. 7) [7]: does not show any BET depletion; Brd4 levels (FIG. 3) [8]: minimal depletion
5 | 51 to 500 | ≥ 71 | 51 to 500 | ≥ 71 | 51 to 500 | ≥ 71 | 51 to 500 | ≥ 71 | 51 to 500 | ≥ 71 | 51 to 500 | 26 to 50 | ≥ 501 | 51 to 70 | ≥ 501 | 51 to 70 | Cc1sc2c(c1C)C(c1ccc(Cl)cc1)=N[C@@H](CC(=O)NCCOCCNC(=O)c1cc(S)c3ncc(C(=O)NCCc4nccs4)cc3c1)c1nnc(C)n1-2 [Example 11JQ1] | Dmax ([9]; 0-24 hrs): 95%; Abs. T1/2 [9, 13]: 1.7 h; T1/2 [9, 14]: 1.6 h; Dmax ([10]; 0-24 hrs): 95%; Abs. T1/2 [10, 13]: 1.9 h; T1/2 [10, 14]: 2 h; Dmax at 1 µM ([11]; 0-24 hrs): 60%; Abs. T1/2 [11, 15]: 3.5 h; T1/2 ([11]; time to reach 50% of the Dmax): 1.0 h; Dmax at 1 µM ([12]; 0-24 hrs): 90%; Abs. T1/2 [12, 15]: 3.5 h; T1/2 ([12]; time to reach 50% of the Dmax): 2.7 h
